Measured values reported in ChEMBL document CHEMBL5724696, “Autophagy assay results for EUbOPEN Chemogenomics Library” (2024).
Where “and” joins values, the source holds several entries; their conditions need not be identical. Equal values may be shown once.

Experiments:
[1] = system: U2OS; experiment: (§1) Here: values are normalized to the positive (DMSO; basel flux = defined as 100% suppression) and negative (250nM Torin1; mTOR inhibitor; maximal inducer of autophagy defined as 0% suppression) control compounds and represented as % of ER-phagy suppression. […] The impact of autophagy induction on cells is complex and depends on the affected target. […] Of note, treatment concentrations may be sub-optimal for specific compounds, leading to false negative annotations.; type: functional, Homo sapiens; details: Compound Concentration 1 uM, Culturing Media DMEM, 1 % Penicillin/Streptomycin, 10% Fetal bovin serum Add-On: blasticidin, Screening Media Control DMEM, 10% Fetal bovin serum Add-On: 1 µg/ml Doxycyclin, Screening Media Samples DMEM
[2] = system: U2OS; experiment: as §1; type: functional, Homo sapiens; details: Compound Concentration 1 uM, Culturing Media DMEM, 1 % Penicillin/Streptomycin, 10% Fetal bovin serum Add-On: blasticidin, Screening Media Control DMEM, 10% Fetal bovin serum Add-On: 1 µg/ml Doxycyclin, Screening Media Samples DMEM; remark: listed apart in the source
[3] = Timepoint 12 hours, 10% Fetal bovin serum Add-On: 1 µg/ml Doxycyclin 250nM Torin1
[4] = Timepoint 24 hours, 10% Fetal bovin serum Add-On: 1 µg/ml Doxycyclin 250nM Torin1
[5] = Timepoint 36 hours, 10% Fetal bovin serum Add-On: 1 µg/ml Doxycyclin 250nM Torin1
[6] = Timepoint 60 hours, 10% Fetal bovin serum Add-On: 1 µg/ml Doxycyclin 250nM Torin1
[7] = Timepoint 54 hours, 10% Fetal bovin serum Add-On: 1 µg/ml Doxycyclin 250nM Torin1
[8] = Timepoint 12 hours, 10% Fetal bovin serum Add-On: 1 µg/ml Doxycyclin 250nM Torin1, 12 h, 1 µM
[9] = Timepoint 24 hours, 10% Fetal bovin serum Add-On: 1 µg/ml Doxycyclin 250nM Torin1, 24 h, 1 µM
[10] = Timepoint 36 hours, 10% Fetal bovin serum Add-On: 1 µg/ml Doxycyclin 250nM Torin1, 36 h, 1 µM
[11] = Timepoint 60 hours, 10% Fetal bovin serum Add-On: 1 µg/ml Doxycyclin 250nM Torin1, 60 h, 1 µM
[12] = Timepoint 54 hours, 10% Fetal bovin serum Add-On: 1 µg/ml Doxycyclin 250nM Torin1, 54 h, 1 µM

## Cc1cnc(-c2cc(Cl)ccc2F)cc1-n1c(=O)n(CC(N)=O)c2ccccc21 [Al11]
[1]; [3]
  ER-phagy suppression: -12.5733%
[1]; [4]
  ER-phagy suppression: -18.3016%
[1]; [5]
  ER-phagy suppression: -21.1778%
[1]; [6]
  ER-phagy suppression: -20.9921%
[2]; [3]
  ER-phagy suppression: -9.163%
[2]; [4]
  ER-phagy suppression: -26.2915%
[2]; [5]
  ER-phagy suppression: -35.1418%
[2]; [7]
  ER-phagy suppression: -38.7834%

## O=C(NCc1ccccc1)c1ccc(S(=O)(=O)NCc2ccccc2)cc1
[1]; [3]
  ER-phagy suppression: -6.979%
[1]; [4]
  ER-phagy suppression: -12.761%
[1]; [5]
  ER-phagy suppression: -1.702%
[1]; [6]
  ER-phagy suppression: -8.939%
[2]; [3]
  ER-phagy suppression: 3.538%
[2]; [4]
  ER-phagy suppression: -5.467%
[2]; [5]
  ER-phagy suppression: -1.304%
[2]; [7]
  ER-phagy suppression: 10.3755%

## CN(C)C(=O)/C(C#N)=C/c1ccc(-c2nc3cnc4c(ccn4C)c3n2C2CCCCC2)o1
[1]; [3]
  ER-phagy suppression: -5.937%
[1]; [4]
  ER-phagy suppression: -19.1708%
[1]; [5]
  ER-phagy suppression: -21.5711%
[1]; [6]
  ER-phagy suppression: -15.3462%
[2]; [3]
  ER-phagy suppression: -7.575%
[2]; [4]
  ER-phagy suppression: -15.5162%
[2]; [5]
  ER-phagy suppression: -12.7474%
[2]; [7]
  ER-phagy suppression: -14.5878%

## CN(C)CCCn1cc(C2=C(c3c[nH]c4ccccc34)C(=O)NC2=O)c2ccccc21 [GF-109203]
[1]; [3]
  ER-phagy suppression: 176.072%
[1]; [4]
  ER-phagy suppression: 134.347%
[1]; [5]
  ER-phagy suppression: 114.591%
[1]; [6]
  ER-phagy suppression: 104.135%
[2]; [3]
  ER-phagy suppression: 134.318%
[2]; [4]
  ER-phagy suppression: 101.39%
[2]; [5]
  ER-phagy suppression: 90.0252%
[2]; [7]
  ER-phagy suppression: 89.0171%

## CCC(=O)Nc1cc(Nc2cc(NC3CC3)n3ncc(C#N)c3n2)ccc1C
[1]; [8]
  ER-phagy suppression: 25.0893% and 12.0462%
[1]; [9]
  ER-phagy suppression: 43.9531% and 30.6203%
[1]; [10]
  ER-phagy suppression: 57.0471% and 46.34%
[1]; [11]
  ER-phagy suppression: 65.9791% and 54.7573%
[2]; [8]
  ER-phagy suppression: 67.8996% and 33.7182%
[2]; [9]
  ER-phagy suppression: 72.4419% and 40.8117%
[2]; [10]
  ER-phagy suppression: 80.6378% and 60.338%
[2]; [12]
  ER-phagy suppression: 84.9565% and 68.6565%

## COc1cc(C2c3cc4c(cc3[C@H](O)[C@H]3COC(=O)[C@@H]23)OCO4)cc(OC)c1OC (stereo not given in full)
[1]; [3]
  ER-phagy suppression: 13.7164%
[1]; [4]
  ER-phagy suppression: -2.596%
[1]; [5]
  ER-phagy suppression: 7.675%
[1]; [6]
  ER-phagy suppression: 9.356%
[2]; [3]
  ER-phagy suppression: 19.9758%
[2]; [4]
  ER-phagy suppression: 6.76%
[2]; [5]
  ER-phagy suppression: 5.125%
[2]; [7]
  ER-phagy suppression: 8.089%

## Cc1c(C(=O)Nc2ccc(Oc3ccnc4[nH]cc(-c5ccccc5)c34)c(F)c2)c(=O)n(-c2ccc(F)cc2)n1C
[1]; [3]
  ER-phagy suppression: 11.6236%
[1]; [4]
  ER-phagy suppression: -15.4691%
[1]; [5]
  ER-phagy suppression: -3.07%
[1]; [6]
  ER-phagy suppression: -1.46%
[2]; [3]
  ER-phagy suppression: 3.929%
[2]; [4]
  ER-phagy suppression: -12.4432%
[2]; [5]
  ER-phagy suppression: -17.5101%
[2]; [7]
  ER-phagy suppression: -17.0737%

## Nc1c(C(=O)NCc2ccc(C(=O)NCCCC3CCCCC3)cc2)cnn1-c1ccccc1 [SR-318]
[1]; [3]
  ER-phagy suppression: -4.749%
[1]; [4]
  ER-phagy suppression: -10.9122%
[1]; [5]
  ER-phagy suppression: -18.8313%
[1]; [6]
  ER-phagy suppression: -35.2993%
[2]; [3]
  ER-phagy suppression: 18.9481%
[2]; [4]
  ER-phagy suppression: 11.0125%
[2]; [5]
  ER-phagy suppression: 12.9949%
[2]; [7]
  ER-phagy suppression: 20.6922%

## CCN(CCO)CCCOc1ccc2c(Nc3cc(CC(=O)Nc4cccc(F)c4)[nH]n3)ncnc2c1 [DEFOSBARASERTIB]
[1]; [11]
  ER-phagy suppression: 14.0476% and -1.761%
[2]; [8]
  ER-phagy suppression: -1.417% and 3.579%
[2]; [9]
  ER-phagy suppression: -12.3988% and -4.272%
[2]; [10]
  ER-phagy suppression: -12.8875% and -11.7769%
[2]; [12]
  ER-phagy suppression: -17.4995% and -20.4042%

## Cc1cn(-c2cc(NC(=O)c3ccc4c(c3)CN(c3cncnc3)C[C@@H]4C)cc(C(F)(F)F)c2)cn1
[1]; [3]
  ER-phagy suppression: -5.176%
[1]; [4]
  ER-phagy suppression: -7.191%
[1]; [5]
  ER-phagy suppression: -10.2809%
[1]; [6]
  ER-phagy suppression: -23.2702%
[2]; [3]
  ER-phagy suppression: -11.2753%
[2]; [4]
  ER-phagy suppression: -32.01%
[2]; [5]
  ER-phagy suppression: -29.9662%
[2]; [7]
  ER-phagy suppression: -28.2988%

## CN(C)C/C=C/C(=O)Nc1cc2c(Nc3ccc(F)c(Cl)c3)ncnc2cc1O[C@H]1CCOC1 [AFATINIB]
[1]; [3]
  ER-phagy suppression: 20.6411%
[1]; [4]
  ER-phagy suppression: 25.6226%
[1]; [5]
  ER-phagy suppression: 22.4767%
[1]; [6]
  ER-phagy suppression: 26.9133%
[2]; [3]
  ER-phagy suppression: -20.9199%
[2]; [4]
  ER-phagy suppression: -7.924%
[2]; [5]
  ER-phagy suppression: -3.193%
[2]; [7]
  ER-phagy suppression: 3.819%
